For assay [1], the target named is PI3K (p120γ) (human) (Homo sapiens (Human), UniProt P48736). The assay is described as follows: PI3K (p120γ) (human), non-radioactive assay (HTRF). Type of assay: biochemical. The note with it: read-out: IC50 (PI3Kgamma). The gist of the method:
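Enzyme was run with 10 μM phosphatidylinositol 4,5-bisphosphate, starting the reaction with MgATP at an unspecified level, for 30 min at room temperature. The stop used EDTA plus biotinylated PIP3, and detection used Eu-anti-GST, GST-GRP1 PH domain and streptavidin-APC. Signal was taken as HTRF = 10000×(Em665nm/Em620nm).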
On the technique in general: Time-resolved FRET reads energy transfer from a long-lived donor to a nearby acceptor.

The target in assay [2] is PI3K p110β/p85α (human) (Homo sapiens (Human), UniProt P42338). The assay is described as follows: PI3K p110β/p85α (human), non-radioactive assay (HTRF). Type of assay: biochemical. As to the method: PI3K p110β/p85α (Human), Non-radioactive Assay
Sequence of PI3K p110β/p85α (human) (P42338 whole entry, the tested form may be a part): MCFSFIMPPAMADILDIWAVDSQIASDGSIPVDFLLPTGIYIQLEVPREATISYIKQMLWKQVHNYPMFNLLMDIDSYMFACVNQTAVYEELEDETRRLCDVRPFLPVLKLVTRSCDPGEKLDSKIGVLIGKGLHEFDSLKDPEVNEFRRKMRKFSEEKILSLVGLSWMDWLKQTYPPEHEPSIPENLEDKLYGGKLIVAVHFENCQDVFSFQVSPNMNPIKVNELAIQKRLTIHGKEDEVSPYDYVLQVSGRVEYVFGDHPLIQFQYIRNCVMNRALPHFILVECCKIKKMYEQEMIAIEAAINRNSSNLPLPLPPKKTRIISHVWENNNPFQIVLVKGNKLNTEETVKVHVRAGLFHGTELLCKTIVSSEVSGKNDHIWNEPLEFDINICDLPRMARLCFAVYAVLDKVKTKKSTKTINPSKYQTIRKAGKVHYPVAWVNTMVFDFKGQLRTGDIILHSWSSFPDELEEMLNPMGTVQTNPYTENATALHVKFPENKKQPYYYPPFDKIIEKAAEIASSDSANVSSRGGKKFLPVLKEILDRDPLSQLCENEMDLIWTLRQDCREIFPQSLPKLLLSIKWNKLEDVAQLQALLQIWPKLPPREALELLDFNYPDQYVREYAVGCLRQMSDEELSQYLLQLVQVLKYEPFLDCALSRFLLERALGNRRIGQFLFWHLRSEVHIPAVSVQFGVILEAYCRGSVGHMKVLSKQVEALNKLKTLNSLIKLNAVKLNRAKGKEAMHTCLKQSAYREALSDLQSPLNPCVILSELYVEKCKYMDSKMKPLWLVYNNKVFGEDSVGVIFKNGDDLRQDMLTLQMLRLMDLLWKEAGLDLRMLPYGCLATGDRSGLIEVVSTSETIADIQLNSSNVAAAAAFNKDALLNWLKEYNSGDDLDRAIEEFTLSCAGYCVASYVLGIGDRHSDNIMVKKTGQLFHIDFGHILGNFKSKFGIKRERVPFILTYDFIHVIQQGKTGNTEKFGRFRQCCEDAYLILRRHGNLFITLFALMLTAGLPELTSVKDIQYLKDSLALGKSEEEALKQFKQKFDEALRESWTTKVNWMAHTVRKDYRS
Sequence of PI3K p110β/p85α (human) (P27986 whole entry partner, the tested form may be a part): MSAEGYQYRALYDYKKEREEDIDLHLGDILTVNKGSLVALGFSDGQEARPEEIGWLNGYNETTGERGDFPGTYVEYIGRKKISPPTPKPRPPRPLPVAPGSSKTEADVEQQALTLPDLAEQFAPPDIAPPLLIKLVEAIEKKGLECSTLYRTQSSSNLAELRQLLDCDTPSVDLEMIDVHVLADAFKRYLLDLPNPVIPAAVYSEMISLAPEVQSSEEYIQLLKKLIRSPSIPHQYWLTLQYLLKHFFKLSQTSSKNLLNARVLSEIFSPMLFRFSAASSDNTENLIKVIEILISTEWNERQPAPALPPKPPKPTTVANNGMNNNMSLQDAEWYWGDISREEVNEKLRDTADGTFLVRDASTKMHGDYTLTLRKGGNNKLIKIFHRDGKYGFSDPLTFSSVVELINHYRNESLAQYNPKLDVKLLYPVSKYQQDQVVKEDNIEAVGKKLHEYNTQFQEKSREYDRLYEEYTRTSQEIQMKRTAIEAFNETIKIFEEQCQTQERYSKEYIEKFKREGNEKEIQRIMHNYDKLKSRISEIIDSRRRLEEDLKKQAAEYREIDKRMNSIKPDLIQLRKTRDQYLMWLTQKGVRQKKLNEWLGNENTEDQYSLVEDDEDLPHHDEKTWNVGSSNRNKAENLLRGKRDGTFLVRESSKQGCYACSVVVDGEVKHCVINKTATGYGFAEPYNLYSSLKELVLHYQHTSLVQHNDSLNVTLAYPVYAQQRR
PI3K p110β/p85α (human) was incubated in an assay buffer comprising 10 μM phosphati-dylinositol 4,5-bisphosphate and MgATP (concentration as necessary). The reaction was initiated by addition of MgATP solution. After an incubation time of 30 min at room temperature, the reaction was stopped by addition of a solution consisting of EDTA and biotinylated phosphatidylinositol 3,4,5-trisphosphate. Finally, the detection buffer, consisting of a europium-labelled anti-GST monoclonal antibody, a GST-labelled GRP1 PH domain and streptavidin allophycocyanin, was added. The plate was read out via homogeneous time-resolved fluorescence (HTRF) and the corresponding signals were evaluated via the formula HTRF=10000×(Em665nm/Em620nm).

The target of assay [3] is PI3K p110δ/p85α (human) (Homo sapiens (Human), UniProt O00329). Kind of assay: PI3K p110δ/p85α (human), non-radioactive assay (HTRF). As to conditions: read-out: IC50 (PI3Kdelta). Type of assay: biochemical.
Sequence of PI3K p110δ/p85α (human) (O00329 whole entry): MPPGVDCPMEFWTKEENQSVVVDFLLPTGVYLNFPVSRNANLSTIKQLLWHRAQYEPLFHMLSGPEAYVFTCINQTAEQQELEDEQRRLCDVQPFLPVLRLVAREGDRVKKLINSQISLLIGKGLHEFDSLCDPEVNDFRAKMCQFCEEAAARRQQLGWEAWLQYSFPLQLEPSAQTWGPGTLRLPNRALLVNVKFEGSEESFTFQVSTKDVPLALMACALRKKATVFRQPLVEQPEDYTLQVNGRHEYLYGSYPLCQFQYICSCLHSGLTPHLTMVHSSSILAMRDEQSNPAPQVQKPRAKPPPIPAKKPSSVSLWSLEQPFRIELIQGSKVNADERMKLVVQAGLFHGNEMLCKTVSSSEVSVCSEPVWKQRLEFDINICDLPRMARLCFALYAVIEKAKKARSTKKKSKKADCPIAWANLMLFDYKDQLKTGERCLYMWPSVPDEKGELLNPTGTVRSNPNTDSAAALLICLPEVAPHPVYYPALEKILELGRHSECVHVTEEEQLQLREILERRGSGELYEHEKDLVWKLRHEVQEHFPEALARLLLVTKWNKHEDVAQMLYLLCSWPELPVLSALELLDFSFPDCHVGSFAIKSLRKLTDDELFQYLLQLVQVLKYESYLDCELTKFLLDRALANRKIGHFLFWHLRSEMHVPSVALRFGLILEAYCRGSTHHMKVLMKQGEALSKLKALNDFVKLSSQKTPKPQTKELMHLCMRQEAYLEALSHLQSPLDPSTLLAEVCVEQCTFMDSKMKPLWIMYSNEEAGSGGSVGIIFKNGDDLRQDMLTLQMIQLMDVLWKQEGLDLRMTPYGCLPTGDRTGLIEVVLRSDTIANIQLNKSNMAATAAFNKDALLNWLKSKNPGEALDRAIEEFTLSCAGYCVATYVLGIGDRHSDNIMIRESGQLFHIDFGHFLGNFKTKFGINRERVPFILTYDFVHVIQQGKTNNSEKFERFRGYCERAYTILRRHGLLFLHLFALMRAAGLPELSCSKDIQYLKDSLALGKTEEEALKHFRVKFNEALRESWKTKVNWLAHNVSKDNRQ
Sequence of PI3K p110δ/p85α (human) (P27986 whole entry partner): as the sequence (P27986 whole entry partner, the tested form may be a part) above
Assay [4] concerns phosphorylation of CHK2 (phospho-Thr68) in HCT116 cells. The assay is described as follows: Cellular pCHK2 assay: bleomycin-induced phosphorylation of CHK2 (phospho-Thr68), immunofluorescence high-content analysis. Type of assay: cell-based, human. As to conditions: Homo sapiens, HCT-116, 4 h, read-out: IC50 (pCHK2). The method, boiled down:
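HCT116 cells in DMEM with 10% FCS, incubated overnight at 37° C, then given compounds (1 nM to 30 μM, 0.5% DMSO) together with 10 μM bleomycin. Phospho-Thr68 CHK2 immunostained and imaged by high-content imager; nuclei with pCHK2 above background counted, cell count from propidium iodide DNA stain.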

The target of assay [5] is PI3K p110α/p85α (human) (Homo sapiens (Human), UniProt P42336). The assay is described as follows: PI3K p110α/p85α (human), non-radioactive assay (HTRF). It is filed as biochemical. The note with it: read-out: IC50 (PI3Kalpha).
Sequence of PI3K p110α/p85α (human) (P42336 whole entry): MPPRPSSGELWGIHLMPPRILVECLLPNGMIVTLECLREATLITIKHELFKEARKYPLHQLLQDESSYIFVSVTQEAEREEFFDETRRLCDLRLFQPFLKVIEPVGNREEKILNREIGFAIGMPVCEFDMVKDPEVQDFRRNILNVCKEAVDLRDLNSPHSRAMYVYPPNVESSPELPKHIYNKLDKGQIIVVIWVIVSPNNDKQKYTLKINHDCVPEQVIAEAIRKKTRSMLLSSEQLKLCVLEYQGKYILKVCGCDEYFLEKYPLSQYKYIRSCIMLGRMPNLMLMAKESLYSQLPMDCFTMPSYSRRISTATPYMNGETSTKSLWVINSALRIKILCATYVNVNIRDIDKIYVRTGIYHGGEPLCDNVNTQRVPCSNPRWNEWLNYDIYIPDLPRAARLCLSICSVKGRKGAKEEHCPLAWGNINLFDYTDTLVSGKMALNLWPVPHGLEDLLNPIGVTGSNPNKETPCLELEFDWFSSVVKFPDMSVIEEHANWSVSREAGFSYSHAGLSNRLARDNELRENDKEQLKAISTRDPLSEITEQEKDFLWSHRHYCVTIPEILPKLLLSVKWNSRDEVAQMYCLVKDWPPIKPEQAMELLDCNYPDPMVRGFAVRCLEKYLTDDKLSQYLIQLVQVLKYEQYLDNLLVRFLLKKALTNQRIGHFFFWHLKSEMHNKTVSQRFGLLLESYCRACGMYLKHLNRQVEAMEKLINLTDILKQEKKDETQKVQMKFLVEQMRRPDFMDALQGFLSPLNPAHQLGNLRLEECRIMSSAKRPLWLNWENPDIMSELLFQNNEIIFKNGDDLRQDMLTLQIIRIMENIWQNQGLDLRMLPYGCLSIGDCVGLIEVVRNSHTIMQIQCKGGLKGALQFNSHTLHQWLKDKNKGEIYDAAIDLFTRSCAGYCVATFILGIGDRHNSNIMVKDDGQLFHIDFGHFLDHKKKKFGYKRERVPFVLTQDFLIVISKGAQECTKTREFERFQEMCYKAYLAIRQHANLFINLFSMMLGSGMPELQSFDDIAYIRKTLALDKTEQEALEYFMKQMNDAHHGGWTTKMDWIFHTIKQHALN
Sequence of PI3K p110α/p85α (human) (P27986 whole entry partner): as the sequence (P27986 whole entry partner, the tested form may be a part) above
For assay [6], the target named is purified human recombinant ATM (ataxia telangiectasia mutated), full length (Homo sapiens (Human), UniProt Q13315). Kind of assay: ATM kinase assay - determination of ATM inhibition (IC50 ATM), TR-FRET. It is filed as biochemical. The method, boiled down:
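Full-length enzyme, expressed in a mammalian cell line, pre-incubated 15 min with inhibitor in 25 mM HEPES pH 8.0, 10 mM Mg(CH3COO)2, 1 mM MnCl2, 0,1% BSA, 0,01% Brij 35, 5 mM DTT. Full-length cmyc-p53 (Sf21-expressed) and ATP then added, 30-35 min at 22° C. EDTA stop; p53 S15 phosphorylation read by TR-FRET antibodies.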

The target in assay [7] is mTOR (human) (Homo sapiens (Human), UniProt P42345). Kind of assay: mTOR (human) kinase assay, [γ-33P-ATP] filter assay. It is filed as biochemical. As to the method: Furthermore, the effect, in particular inhibition, of other kinases and thus the selectivity of the compounds according to the invention can be determined with the aid of the following assay:
mTOR (human) was incubated with 50 mM HEPES pH 7.5, 1 mM EGTA, 0.01% Tween 20, 2 mg/ml of the substrate, 3 mM MnCl2 and [γ-^33P-ATP] (specific activity approximately 500 cpm/pmol, concentration as necessary). The reaction was initiated by addition of MgATP solution. After incubation at room temperature for 40 minutes, the reaction was stopped by addition of 3% phosphoric acid. 10 μl of the reaction solution were then transferred dropwise onto a P30 filtermat and washed three times for 5 min in 75 mM phosphoric acid and once in methanol, dried and evaluated by means of liquid scintillation counting.

Where a name gives a salt, the structure may show the parent alone. Read-outs that look alike come from different tables or passages of the source.

Sequence of PI3K (p120γ) (human) (P48736 whole entry, the tested form may be a part): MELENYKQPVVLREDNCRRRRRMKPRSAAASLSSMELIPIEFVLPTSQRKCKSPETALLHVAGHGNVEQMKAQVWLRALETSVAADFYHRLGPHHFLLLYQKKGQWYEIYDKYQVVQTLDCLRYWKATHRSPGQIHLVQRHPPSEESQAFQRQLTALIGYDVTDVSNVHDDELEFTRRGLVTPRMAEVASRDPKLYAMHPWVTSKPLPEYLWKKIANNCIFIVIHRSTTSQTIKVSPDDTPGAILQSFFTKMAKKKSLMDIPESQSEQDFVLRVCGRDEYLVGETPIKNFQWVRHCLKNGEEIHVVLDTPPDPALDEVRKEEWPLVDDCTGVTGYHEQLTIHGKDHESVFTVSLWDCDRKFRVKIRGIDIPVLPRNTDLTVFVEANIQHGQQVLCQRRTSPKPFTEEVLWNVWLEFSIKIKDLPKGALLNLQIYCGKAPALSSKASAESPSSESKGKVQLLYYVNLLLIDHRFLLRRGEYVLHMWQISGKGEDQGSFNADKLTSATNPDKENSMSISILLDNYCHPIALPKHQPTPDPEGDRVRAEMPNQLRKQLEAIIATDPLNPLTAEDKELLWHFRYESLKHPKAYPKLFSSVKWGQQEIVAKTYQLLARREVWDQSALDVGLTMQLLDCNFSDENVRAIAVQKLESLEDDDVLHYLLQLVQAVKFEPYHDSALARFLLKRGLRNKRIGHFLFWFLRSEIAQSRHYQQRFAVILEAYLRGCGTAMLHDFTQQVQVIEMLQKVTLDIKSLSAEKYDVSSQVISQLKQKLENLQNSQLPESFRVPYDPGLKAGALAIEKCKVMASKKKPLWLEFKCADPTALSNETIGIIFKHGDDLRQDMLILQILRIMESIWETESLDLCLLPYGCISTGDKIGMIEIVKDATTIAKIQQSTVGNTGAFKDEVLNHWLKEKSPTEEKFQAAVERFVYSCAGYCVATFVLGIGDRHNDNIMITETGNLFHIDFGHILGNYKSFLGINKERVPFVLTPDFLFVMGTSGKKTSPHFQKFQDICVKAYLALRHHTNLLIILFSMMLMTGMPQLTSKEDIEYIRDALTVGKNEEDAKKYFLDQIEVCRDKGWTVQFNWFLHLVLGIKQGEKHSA

In the case of `COc1cc2ncc3c(c2cc1-c1cn[nH]c1)n(-c1c(F)cncc1F)c(=O)n3C` [Compound Example 2, 1-(3,5-Difluoropyridin-4-yl)-7-methoxy-3-methyl-8-(1H-pyrazol-4-yl)-1,3-dihydro-imidazo[4,5-c]quinolin-2-one], the IC50 is above 30 µM in assay [1]; above 30 µM in assay [2] (read-out: IC50 (PI3Kbeta)); above 30 µM in assay [3]; below 200 nM in assay [4]; above 30 µM in assay [5]; below 1 nM in assay [6]. Also, the IC50 in assay [6] (10 μM ATP, substrate p53) is below 1 nM; in assay [7] it was above 5 µM.

Regarding `COc1cc2ncc3c(c2cc1-c1cnn(C)c1)n(-c1ncc(C)cc1F)c(=O)n3C` [Compound Example 27, 1-(3-Fluoro-5-methylpyridin-2-yl)-7-methoxy-3-methyl-8-(1-methyl-1H-pyrazol-4-yl)-1,3-dihydroimidazo[4,5-c] quinolin-2-one], the IC50 in assay [1] was above 30 µM; in assay [2] (read-out: IC50 (PI3Kbeta)), above 30 µM; in assay [3] it was above 30 µM; in assay [4], below 200 nM; in assay [5] it was above 30 µM; in assay [6], below 1 nM. The IC50 in assay [6] (10 μM ATP, substrate p53) is below 1 nM; in assay [7], above 30 µM.

For the compound `COc1cc2ncc3c(c2cc1-c1cn[nH]c1)n(-c1cnn(C)c1)c(=O)n3C` [Compound Example 17, 7-Methoxy-3-methyl-1-(1-methyl-1H-pyrazol-4-yl)-8-(1H-pyrazol-4-yl)-1,3-dihydroimidazo[4,5-c] quinolin-2-one], the IC50 in assay [1] was above 30 µM; in assay [2] (read-out: IC50 (PI3Kbeta)), above 30 µM; in assay [3], above 30 µM; in assay [4], below 200 nM; in assay [5], above 30 µM; in assay [6], below 10 nM. Also, the IC50 is below 1 nM in assay [6] (10 μM ATP, substrate p53) and above 10 µM in assay [7].

`COc1cc2ncc3c(c2cc1-c1cn(C)nc1C)n(-c1ncccc1F)c(=O)n3C` [Compound Example 16, 8-(1,3-Dimethyl-1H-pyrazol-4-yl)-1-(3-fluoropyridin-2-yl)-7-methoxy-3-methyl-1,3-dihydroimidazo[4,5-c] quinolin-2-one]: the IC50 in assay [1] is above 30 µM; in assay [2] (read-out: IC50 (PI3Kbeta)), above 30 µM; in assay [3], above 30 µM; in assay [4] it was below 200 nM; in assay [5] it was above 30 µM; in assay [6], below 1 nM. The IC50 was below 1 nM in assay [6] (10 μM ATP, substrate p53) and above 30 µM in assay [7].

`COc1cc2ncc3c(c2cc1-c1cnn(C)c1)n(-c1ccncc1C)c(=O)n3C` [Compound Example 40, 7-Methoxy-3-methyl-8-(1-methyl-1H-pyrazol-4-yl)-1-(3-methylpyridin-4-yl)-1,3-dihydroimidazo[4,5-c] quinolin-2-one]: the IC50 in assay [1] is above 30 µM; in assay [2] (read-out: IC50 (PI3Kbeta)), above 30 µM; in assay [3], above 30 µM; in assay [4], 200 to 1000 nM; in assay [5], above 30 µM; in assay [6], below 10 nM. Also, the IC50 in assay [6] (10 μM ATP, substrate p53) is below 10 nM; in assay [7], above 30 µM.

On to `COc1cc2ncc3c(c2cc1-c1cn[nH]c1)n(-c1cn(C)nc1C)c(=O)n3C` [Example 3], for which the IC50 in assay [1] is above 30 µM; in assay [2], above 30 µM; in assay [3], above 30 µM; in assay [4], below 200 nM; in assay [5] it was above 30 µM; in assay [6] it was below 1 nM. Moreover, the IC50 in assay [6] (10 μM ATP, substrate p53) is below 1 nM; in assay [7], above 5 µM.

Regarding `COc1cc2ncc3c(c2cc1-c1cn[nH]c1)n(-c1cnn(C2CCOCC2)c1)c(=O)n3C` [Compound Example 37, 7-Methoxy-3-methyl-8-(1H-pyrazol-4-yl)-1-[1-(tetrahydropyran-4-yl)-1H-pyrazol-4-yl]-1,3-dihydro-imidazo[4,5-c] quinolin-2-one], the IC50 was above 30 µM in assay [1]; above 30 µM in assay [2] (read-out: IC50 (PI3Kbeta)); above 30 µM in assay [3]; below 200 nM in assay [4]; above 30 µM in assay [5]; below 10 nM in assay [6]. The IC50 in assay [6] (10 μM ATP, substrate p53) was below 10 nM; in assay [7], above 10 µM.

For the compound `COc1cc2ncc3c(c2cc1-c1cnn(C)c1)n(-c1cn(C)nc1C)c(=O)n3C` [Compound Example 5, 1-(1,3-Dimethyl-1H-pyrazol-4-yl)-7-methoxy-3-methyl-8-(1-methyl-1H-pyrazol-4-yl)-1,3-dihydroimidazo[4,5-c]-quinolin-2-one], the IC50 in assay [1] is above 30 µM; in assay [2] (read-out: IC50 (PI3Kbeta)), above 30 µM; in assay [3], above 30 µM; in assay [4], below 200 nM; in assay [5], above 30 µM; in assay [6], below 1 nM. Besides, the IC50 is below 1 nM in assay [6] (10 μM ATP, substrate p53) and above 30 µM in assay [7].

For `COc1cc2ncc3c(c2cc1-c1cnn(C)c1)n(-c1ncncc1F)c(=O)n3C` [Compound Example 31, 1-(5-Fluoropyrimidin-4-yl)-7-methoxy-3-methyl-8-(1-methyl-1H-pyrazol-4-yl)-1H,2H,3H-imidazo[4,5-c] quinolin-2-one hydrochloride], the IC50 in assay [1] was above 30 µM; in assay [2] (read-out: IC50 (PI3Kbeta)), above 30 µM; in assay [3], above 30 µM; in assay [4], below 200 nM; in assay [5], above 30 µM; in assay [6], below 10 nM. Moreover, the IC50 is below 10 nM in assay [6] (10 μM ATP, substrate p53) and above 30 µM in assay [7].

Regarding `CCn1cc(-c2cc3c(cc2OC)ncc2c3n(-c3ccncc3F)c(=O)n2C)cn1` [Compound Example 33, 8-(1-Ethyl-1H-pyrazol-4-yl)-1-(3-fluoropyridin-4-yl)-7-methoxy-3-methyl-1,3-dihydroimidazo[4,5-c] quinolin-2-one], the IC50 in assay [1] was above 30 µM; in assay [2] (read-out: IC50 (PI3Kbeta)) it was above 30 µM; in assay [3], above 30 µM; in assay [4], below 200 nM; in assay [5], above 30 µM; in assay [6] it was below 1 nM. Moreover, the IC50 in assay [6] (10 μM ATP, substrate p53) was below 1 nM; in assay [7], above 30 µM.

As for `COc1cc2ncc3c(c2cc1-c1cnn(C)c1)n(-c1cn(C)cn1)c(=O)n3C` [compound 59, 7-Methoxy-3-methyl-1-(1-methyl-1H-imidazol-4-yl)-8-(1-methyl-1H-pyrazol-4-yl)-1,3-dihydroimidazo[4,5-c] quinolin-2-one], the IC50 in assay [1] is above 30 µM; in assay [2] (read-out: IC50 (PI3Kbeta)), above 30 µM; in assay [3], above 30 µM; in assay [4], 1000 to 2000 nM; in assay [5], above 30 µM; in assay [6], below 10 nM. The IC50 in assay [6] (10 μM ATP, substrate p53) was below 10 nM; in assay [7], above 30 µM.

In the case of `COc1cc2ncc3c(c2cc1-c1cnn(C)c1)n(-c1c(F)cncc1OC)c(=O)n3C` [Compound Example 15, 1-(3-Fluoro-5-methoxypyridin-4-yl)-7-methoxy-3-methyl-8-(1-methyl-1H-pyrazol-4-yl)-1,3-dihydroimidazo[4,5-c]-quinolin-2-one], the IC50 in assay [1] is above 30 µM; in assay [2] (read-out: IC50 (PI3Kbeta)), above 30 µM; in assay [3], above 30 µM; in assay [4] it was below 200 nM; in assay [5], above 30 µM; in assay [6], below 1 nM. The IC50 is below 1 nM in assay [6] (10 μM ATP, substrate p53) and above 30 µM in assay [7].
